Laboratory results: paper PMC9865752, “Design and Synthesis of (Z)-2-(Benzylamino)-5-benzylidenethiazol-4(5H)-one Derivatives as Tyrosinase Inhibitors and Their Anti-Melanogenic and Antioxidant Effects” (Molecules, 2023)
Read-outs that look alike come from different tables or passages of the source.

Assays:
mushroom tyrosinase = test: Mushroom tyrosinase inhibition assay; format: biochemical; settings: for IC50: mean ± SEM of three experiments
Method: As mushroom tyrosinase is commercially available and relatively cheap, it is used as a tool for the identification of novel tyrosinase inhibitors. Here, we examined the tyrosinase inhibitory activities of the 14 BABT derivatives against mushroom tyrosinase in the presence of L-tyrosine or L-dopa as substrates.
Mushroom tyrosinase inhibitory activities of BABT derivatives were determined as described previously, with minor modifications. L-Tyrosine and L-dopa were used as substrates to evaluate the enzyme activity. […] Assay mixtures were incubated at 37 °C for 30 min, and dopachrome amounts synthesized were determined by measuring the optical density of each well at 475 nm using a microplate reader (VersaMax; Molecular Devices, Sunnyvale, CA, USA).

[1] = SIN-1-induced ROS scavenging assay; settings: 20 µM; SIN-1 as ROS generator; DCFH-DA probe
Source text: The scavenging activities of the BABT derivatives 1–14 against ROS and peroxynitrite (ONOO^−) were investigated because the antioxidant activities of the compounds may modulate melanogenesis. To measure the ROS scavenging activities of BABT derivatives, 2′,7′-dichlorodihydrofluorescein diacetate (DCFH-DA) and 3-morpholinosydnonimine (SIN-1) were used as a fluorogenic probe and ROS generator, respectively. The reaction of DCFH-DA with esterase produces 2′,7′-dichlorodihydrofluorescein (DCFH), which generates the fluorescent compound 2′,7′-dichlorofluorescein (DCF) by reacting with ROS produced by SIN-1. Therefore, ROS scavenging activities were determined by measuring the DCF fluorescence remaining after the BABT derivatives scavenged the ROS generated by SIN-1. […] BABT derivatives and Trolox, the positive control, were used at a concentration of 20 µM.
The ROS scavenging activities of the BABT derivatives were measured using an oxidant-sensitive fluorescent probe. Derivatives or Trolox (10 µL; final concentration: 20 µM) were seeded in a black 96-well plate. Then, 10 µL of SIN-1 (10 µM) was added to induce radical species generation and mixed with 180 µL of sodium phosphate buffer (pH 7.4) containing 12.5 µM DCF-DA and 600 units of esterase. Fluorescence intensity was measured at emission and excitation wavelengths of 535 and 485 nm, respectively, using a fluorescence microplate reader (Berthold Technologies GmbH & Co., Wien, Austria). Trolox was used as the positive control.

[2] = DPPH radical scavenging assay; settings: test samples 500 µM; DPPH 0.18 mM; 30 min in the dark
Method: DPPH is a light-sensitive compound containing free radicals. The DPPH assay is one of the most common methods for evaluating the antioxidant activity of a compound. The effects of BABT derivatives on DPPH radical scavenging activities were evaluated using L-ascorbic acid as a positive reference control. DPPH radical scavenging activities were measured after leaving the mixed samples (test samples of 500 µM plus DPPH solution of 0.18 mM) in the dark for 30 min. To determine the radical scavenging activities, the absorbance of the mixed samples was measured at 517 nm.
According to previously described methods, with minor modifications, the DPPH radical scavenging activities of BABT derivatives 1–14 were measured. A DPPH (0.2 mM) and methanol solution (180 µL) was mixed with 20 µL of a DMSO solution containing 5 mM BABT derivative, or with 20 µL of an aqueous solution of 5 mM L-ascorbic acid, in each well of a 96-well plate and kept at ambient temperature in the dark for 30 min. The optical density of each well was measured at 517 nm using a microplate reader (VersaMax; Molecular Devices). L-Ascorbic acid was used as a positive reference control, and the DPPH radical scavenging abilities of BABT derivatives were compared with those of L-ascorbic acid. All experiments were performed independently, thrice.

[3] = Peroxynitrite scavenging assay; settings: 20 µM; SIN-1 as generator; DHR123 probe
Method: The effects of the BABT derivatives on peroxynitrite scavenging activities were also examined using SIN-1 as an RNS generator and dihydrorhodamine (DHR123) as an ROS indicator. DHR123 was converted to fluorescent rhodamine 123 by peroxynitrite generated by SIN-1. Therefore, the peroxynitrite scavenging activities of 1–14 were assessed by measuring the fluorescence of rhodamine 123. BABT derivatives and penicillamine, the positive control, were used at a concentration of 20 µM.
The peroxynitrite scavenging activities of the BABT derivatives were assessed using the method developed by Kooy, involving the monitoring of highly fluorescent rhodamine 123, which was rapidly produced from non-fluorescent DHR123 in the presence of peroxynitrite. Rhodamine buffer (pH 7.4) was composed of 50 mM sodium phosphate dibasic, 50 mM sodium phosphate monobasic, 90 mM sodium chloride, 5 mM potassium chloride, and 100 µM DTPA. A 10 µL aliquot of BABT derivatives or PCA (final concentration: 20 µM) was seeded in a black 96-well plate. Then, 10 µL of SIN-1 (10 µM) was added to induce radical species generation and mixed with 180 µL of rhodamine buffer. Fluorescence intensity was measured at emission and excitation wavelengths of 535 and 485 nm, respectively, using a fluorescence microplate reader (Berthold Technologies GmbH & Co.). PCA was used as the positive control.

B16F10 cells = test: Measurement of extracellular and intracellular melanin levels; format: cell-based, murine; settings: 20 µM; α-MSH plus IBMX stimulated B16F10 cells; 72 h
Method: To investigate the effects of derivative 8 on extracellular and intracellular melanin levels in B16F10 cells, the cells were treated with various concentrations (5, 10, and 20 µM) of derivative 8 for 1 h, in addition to co-treatment with α-MSH (0.5 µM) and 3-isobutyl-1-methylxanthine (IBMX; 200 µM) to enhance melanin biosynthesis in B16F10 cells. After 72 h of incubation, the effects of 8 on extracellular and intracellular melanin levels were determined by measuring the melanin absorbance in the culture media and cell lysates, respectively, at 405 nm using a microplate reader.
The effect of 8 on melanin production was measured using a standard melanin content assay, with minor modifications. Briefly, B16F10 cells were seeded at a density of 1 × 10^5 cells per well and allowed to adhere to the well bottoms for 24 h under the conditions used for cell cultures. […] After incubation for 72 h at 37 °C in a 5% CO2 atmosphere, melanin levels were determined. To measure the extracellular melanin levels, the absorbance of each well of the culture medium was measured at 405 nm. […] Cultured cells were washed twice with PBS, and the pellets obtained were dissolved using 1 N NaOH solution (200 µL, 10% DMSO) at 60 °C for 1 h. Cell lysates were transferred to the wells of a 96-well plate, and the optical density of melanin dissolved in each well was measured at 405 nm in aqueous DMSO solution using a microplate reader (VersaMax; Molecular Devices).

[4] = substrate L-dopa, read-out: IC50 (µM) L-Dopa
[5] = substrate L-tyrosine, read-out: IC50 (µM) L-Tyrosine

| SMILES | IC50 (mushroom tyrosinase; [4]) | IC50 (mushroom tyrosinase; [5]) | ROS scavenging activity (in words) [1] | further results |
| --- | --- | --- | --- | --- |
| COc1ccc(/C=C2\SC(NCc3ccccc3)=NC2=O)cc1 [Compound 2, (Z)-2-(benzylamino)-5-(4-methoxybenzylidene)thiazol-4(5H)-one] | 239.4 ± 2.38 µM | 126 ± 10 µM | strongly reduced the ROS levels enhanced by SIN-1 | fold decrease of tyrosinase inhibitory activity versus derivative 1 (mushroom tyrosinase; substrate L-dopa): 3.7 fold; fold lower tyrosinase inhibitory activity than derivative 1 (mushroom tyrosinase; substrate L-tyrosine): 4.6 fold |
| O=C1N=C(NCc2ccccc2)S/C1=C\c1ccc(F)cc1F [Compound 3, (Z)-2-(benzylamino)-5-(2,4-difluorobenzylidene)thiazol-4(5H)-one] | > 300 µM | > 300 µM | moderate ROS scavenging activities | – |
| CC(C)(S)[C@@H](N)C(=O)O [penicillamine, reference compound] | – | – | – | peroxynitrite scavenging activity (in words) [3]: significantly reduced the peroxynitrite levels increased by SIN-1 treatment |
| O=C1N=C(NCc2ccccc2)S/C1=C\c1ccc(F)c(F)c1 [Compound 4, (Z)-2-(benzylamino)-5-(3,4-difluorobenzylidene)thiazol-4(5H)-one] | > 300 µM | 289 ± 14.7 µM | moderate ROS scavenging activities | – |
| O=C1O[C@H]([C@@H](O)CO)C(O)=C1O [L-Ascorbic acid, L-ascorbic acid, reference compound] | – | – | – | DPPH radical scavenging activity, % inhibition [2]: 97% |
| O=c1cc(CO)occ1O [kojic acid, Kojic acid, reference compound] | – | – | – | extracellular melanin levels compared to untreated control (B16F10 cells): 1.5 fold; intracellular melanin levels compared to untreated control (B16F10 cells): 1.9 fold |

More lines, main results first:

| IC50 (mushroom tyrosinase; [4]) | IC50 (mushroom tyrosinase; [5]) | SMILES | ROS scavenging activity (in words) [1] | further results |
| --- | --- | --- | --- | --- |
| > 300 µM | > 300 µM | COc1ccc(/C=C2\SC(NCc3ccccc3)=NC2=O)cc1OC [Compound 11, (Z)-2-(benzylamino)-5-(3,4-dimethoxybenzylidene)thiazol-4(5H)-one] | – | mushroom tyrosinase inhibitory activity (in words) (mushroom tyrosinase; substrate L-tyrosine): little-to-no mushroom tyrosinase inhibitory activity |
| 214 ± 6.29 µM | 293 ± 13.1 µM | COc1ccc(/C=C2\SC(NCc3ccccc3)=NC2=O)c(OC)c1 [Compound 10, (Z)-2-(benzylamino)-5-(2,4-dimethoxybenzylidene)thiazol-4(5H)-one] | – | mushroom tyrosinase inhibitory activity (in words) (mushroom tyrosinase; substrate L-tyrosine): little-to-no mushroom tyrosinase inhibitory activity |
| > 300 µM | 166 ± 8.04 µM | COc1cc(/C=C2\SC(NCc3ccccc3)=NC2=O)cc(OC)c1O [Compound 12, (Z)-2-(benzylamino)-5-(4-hydroxy-3,5-dimethoxybenzylidene)thiazol-4(5H)-one] | – | DPPH radical scavenging activity, % inhibition [2]: 62% |
| 231 ± 7.43 µM | 192 ± 9.04 µM | COc1cc(/C=C2\SC(NCc3ccccc3)=NC2=O)cc(OC)c1OC [Compound 14, (Z)-2-(benzylamino)-5-(3,4,5-trimethoxybenzylidene)thiazol-4(5H)-one] | – | mushroom tyrosinase inhibitory activity (in words) (mushroom tyrosinase; substrate L-tyrosine): little-to-no mushroom tyrosinase inhibitory activity |
| 65.1 ± 8.29 µM | 27.5 ± 2.93 µM | O=C1N=C(NCc2ccccc2)S/C1=C\c1ccc(O)cc1 [Compound 1, (Z)-2-(benzylamino)-5-(4-hydroxybenzylidene)thiazol-4(5H)-one] | strongly reduced the ROS levels enhanced by SIN-1 | fold higher IC50 value with L-dopa than with L-tyrosine (mushroom tyrosinase; L-dopa versus L-tyrosine as substrate): 2 fold; peroxynitrite scavenging activity (in words) [3]: strong ROS and peroxynitrite scavenging activities |
| > 300 µM | 137 ± 10.7 µM | CC(C)(C)c1cc(/C=C2\SC(NCc3ccccc3)=NC2=O)cc(C(C)(C)C)c1O [Compound 13, (Z)-2-(benzylamino)-5-(3,5-di-tert-butyl-4-hydroxybenzylidene)thiazol-4(5H)-one] | – | – |
| 248 ± 11.5 µM | 199 ± 8.57 µM | CCOc1cc(/C=C2\SC(NCc3ccccc3)=NC2=O)ccc1O [Compound 6, (Z)-2-(benzylamino)-5-(3-ethoxy-4-hydroxybenzylidene)thiazol-4(5H)-one] | – | – |
| > 300 µM | 148.3 ± 1.12 µM | COc1cc(/C=C2\SC(NCc3ccccc3)=NC2=O)ccc1O [Compound 5, (Z)-2-(benzylamino)-5-(4-hydroxy-3-methoxybenzylidene)thiazol-4(5H)-one] | moderate ROS scavenging activities | – |
